Assay results taken from patent US8709741B2, “Methods of diagnosing a plasmodium infection” (priority 2009, dated 2014).
Like-named read-outs stand apart in the source and are kept apart here.

Key:
Format in all cases: cell-based
[1] = system: P. falciparum; assay: Involvement of enzymatic activity in GX sPLA2-induced inhibition of parasite growth (schizont-enriched culture, 24 h); conditions: 37.5 μM LY329722 plus 50 nM GX sPLA2, 24 h
Description: Parasitaemia (%) at t 0 h and t 24 h were determined from Diff Quick-stained smears. Y axis states increase of parasitaemia (A parasitaemia (%)), expressed as parasitaemia at t 24 h-parasitaemia at t 0 h;
Parasitaemia (%) before incubation, and after 24 h of incubation, was determined from Diff Quick-stained smears. Parasite growth was expressed as the percent delta of parasitaemia, using the following formula:
ΔP=[(Px−P0)/(P100−P0)]×100; where ΔP is in percent, P0 is the parasitaemia (%) in the initial culture, P100 is the parasitaemia (%) after 24 h in normal culture conditions, and Px is the parasitaemia (%) after 24 h in experimental conditions.

[2] = system: P. falciparum FcB1 strain; assay: In vitro chemosensitizing activity of PAF on hGX sPLA2 (response modification index); conditions: fixed sub-inhibitory PAF 25 μM, 37.5 μM and 50 μM
Description: The effects of serial concentrations of PAF (platelet-activating factor) on the susceptibility of the P. falciparum FcB1 strain to GX sPLA2 were assessed in vitro. A P. falciparum culture (1% parasitaemia, 2% haematocrit) was incubated in a 96-well microplate with decreasing concentrations of the recombinant GX sPLA2 in the presence of a fixed, sub-inhibitory concentration of PAF. The response modification index (RMI) as a function of PAF concentration is represented. RMI is the ratio of the 50% inhibitory concentrations (IC50) for GX sPLA2 plus the concentration of PAF, and GX sPLA2 alone. An RMI of 1.0 represents no change in the IC50 for GX sPLA2 when combined with PAF. The RMI values<1.0 represent the degree of potentiation or synergism.
Quantitative analysis of the increased activity of recombinant hGX sPLA2 when combined with PAF was done by comparing concentration-response curves for hGX sPLA2 alone and in the presence of several fixed, sub-inhibitory concentrations of PAF. Effects of each fixed concentration of PAF on the response of the parasites (IC50) to hGX sPLA2 were expressed as the response modification index (RMI) (Oduola et al., 1998). The RMI was calculated by the following formula: RMI=IC50(A,B)/IC50(A), where drug A is hGX sPLA2 and B is PAF. An RMI of 1.0 represents no change in the IC50 for the recombinant hGX sPLA2 combined with PAF. […]

[3] = system: P. falciparum FcB1/Colombian strain; assay: Anti-Plasmodium activity assay (dose-response, 3H-hypoxanthine incorporation), culture with human serum; conditions: read-out: IC50 on Plasmodium intra-erythrocytic development
Description: The chloroquine-resistant P. falciparum FcB1/Colombian strain was used. Under the following culture conditions, the in vitro life cycle of the FcB1 strain was 48 hours. Cultures were grown in complete medium consisting of RPMI 1640 (Life Technologies, Inc.) supplemented with 11 mM glucose, 27.5 mM NaHCO3, 100 UI/mL penicillin, 100 μg/mL streptomycin, adjusted to pH 7.4 before addition of heat-inactivated human serum (A+ blood group, 8% final) or Albumax II® (0.5% final), according to the procedure of Trager and Jensen (1976). Parasites were routinely grown at 37° C. in human A+ RBCs (Red blood cells) at a 2% haematocrit and 2-6% parasitemia, in a 3% CO2, 6% O2 and 91% N2 atmosphere. Semi-synchronized cultures were established by Sorbitol (Lambros) treatment. Highly synchronized cultures (4 hour-window synchronization) were obtained by successive Plamion (Pasvol) and Sorbitol treatments. Parasitaemia and stage distribution were determined by optical examination of Diff-Quick stained culture smears. Parasitaemia (expressed in percent) is hundred times the number of parasitized erythrocytes divided by the total number of erythrocytes.
Dried preparations of the purified recombinant human sPLA2s were re-suspended at high concentration (usually 50 μM) in RPMI 0.05% BSA, and then tested individually for their capacity to inhibit the in vitro intra-erythrocytic development of P. falciparum. Dose-response assays based on ^3H-hypoxanthine incorporation by growing parasites were performed as in Guillaume et al. (2004). Radioactivity was measured with a 1450 Microbeta counter (Wallac, Perkin Elmer). Percentage of growth inhibition was calculated from the parasite-associated radioactivity compared with control without sPLA2. Values for the IC50 were determined from dose-response curves.

Compound	effect on GX sPLA2-induced inhibition of parasite growth [1]	response modification index (RMI) = IC50(GX sPLA2 + PAF)/IC50(GX sPLA2) [2]	IC50 ([3]; serum PAF-AH inhibited by Pefabloc) [µM]	IC50 ([3]; standard culture conditions) [µM]
CCc1c(C(=O)C(N)=O)c2c(OCC(=O)O)cc(C)cc2n1Cc1ccccc1 [LY329722, sodium [3-aminooxalyl-1-benzyl-2-ethyl-6-methyl-1H-indol-4-yloxy]-acetic acid]	Inhibition of parasite growth was removed	–	–	–
platelet-activating factor [PAF]	–	< 1	95 ± 2.8	82 ± 1.2
